Measured values published in US20140255402A1 (priority 2013, published 2014).

Tested on: NALM/6 cells
Set-up: species or system mice
Details: mouse, in vivo

Compound: Nc1ccn([C@@H]2O[C@H](CO)[C@@H](O)[C@@H]2O)c(=O)n1 [Ara-C, Cytarabine]
- Survival difference as compared to placebo: no significant survival difference
